Patent publication US8697705B2, “Isoindolinone derivatives” (Hoffmann-La Roche Inc., priority 2011, dated 2014)

Legend:
[1] = target: T1, Recombinant human liver GK1 (GST-GK) (Homo sapiens, UniProt P35557); assay: Glucokinase in vitro assay (G6PDH-coupled, NADH generation, OD340); format: biochemical; conditions: 30° C., 5 mM D-glucose, 10% dimethylsulfoxide
T1 construct: made in house; host or cells: E. coli
T1 sequence (P35557 1-466 isoform P35557-2): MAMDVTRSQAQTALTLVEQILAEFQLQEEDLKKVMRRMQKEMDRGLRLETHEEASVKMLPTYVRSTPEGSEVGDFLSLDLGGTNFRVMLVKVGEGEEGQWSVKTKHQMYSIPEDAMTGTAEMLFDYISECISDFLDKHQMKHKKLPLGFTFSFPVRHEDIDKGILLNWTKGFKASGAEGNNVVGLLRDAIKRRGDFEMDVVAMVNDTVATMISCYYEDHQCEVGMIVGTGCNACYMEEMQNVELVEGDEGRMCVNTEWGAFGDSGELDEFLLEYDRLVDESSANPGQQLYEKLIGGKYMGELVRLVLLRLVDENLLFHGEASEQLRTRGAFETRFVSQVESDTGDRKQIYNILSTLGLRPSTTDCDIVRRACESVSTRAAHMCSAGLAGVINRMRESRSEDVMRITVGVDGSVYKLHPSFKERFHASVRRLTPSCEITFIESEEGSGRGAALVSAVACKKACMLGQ
Experimental: Glucokinase In Vitro Assay Protocol:
Glucokinase (GK) was assayed by coupling the production of glucose-6-phosphate to the generation of NADH with glucose-6-phosphate dehydrogenase (G6PDH, 0.75-1 kunits/mg; Boehringer Mannheim, Indianapolis, Ind.) from Leuconostoc mesenteroides as the coupling enzyme (Scheme 2).
Recombinant human liver GK1 was expressed in E. coli as a glutathione S-transferase fusion protein (GST-GK) and was purified by chromatography over a glutathione-Sepharose 4B affinity column using the procedure provided by the manufacturer (Amersham Pharmacia Biotech, Piscataway, N.J.).
The assay was conducted at 30° C. in a flat bottom 96-well tissue culture plate from Costar (Cambridge, Mass.) with a final incubation volume of 120 μL. The incubation reaction contained the following: 25 mM Hepes buffer (pH 7.1), 25 mM KCl, 5 mM D-glucose, 1 mM ATP, 1.8 mM NAD, 2 mM MgCl2, 1 μM sorbitol-6-phosphate, 1 mM dithiothreitol, test drug or 10% dimethylsulfoxide, ˜7 units/ml G6PDH, and GK (see below). All organic reagents were >98% pure and were from Boehringer Mannheim with the exceptions of D-glucose and Hepes which were from Sigma Chemical Co, St Louis, Mo. Test compounds were dissolved in dimethylsulfoxide and were added to the incubation reaction minus GST-GK in a volume of 12 μL to yield a final dimethylsulfoxide concentration of 10%. This mix was pre-incubated in the temperature controlled chamber of a SPECTRAmax 250 microplate spectrophotometer (Molecular Devices Corporation, Sunnyvale, Calif.) for 10 minutes to allow temperature equilibrium and then the reaction was started by the addition of 20 μL GST-GK.
After addition of enzyme, the increase in optical density (OD) at 340 nm was monitored spectrophotometrically to determine the rate of change (OD340 per min). The GK activity (OD340/min) in control wells (10% dimethylsulfoxide minus GK activators) was compared with the activity in wells containing test GK activators, and the concentration of activator that produced a 50% increase in the activity of GK, i.e., the SC1.5, was calculated.

C57BL/6J mice = assay: Glucokinase activator in vivo screen: blood glucose lowering after oral gavage in mice; conditions: Mus musculus; vs. control at 2 hours post 25 mg/kg oral dose, C57B6 mice; read-out: % gluc lowering @ 2 H
Experimental: Glucokinase Activator In Vivo Screen Protocol in Lean Mice:
Lean C57BL/6J mice were orally dosed via gavage with Glucokinase (GK) activator following a two hour fasting period. Blood glucose determinations were made at various (e.g. 0, 1, 2, 4 and 8 hours post-oral gavage) times during the study.
C57Bl/6J mice were obtained from Jackson Laboratory (Bar Harbor, Me.) and were maintained in a light-dark cycle with lights on from 0600-1800 hr. For studies in lean mice, the mice were received at age ten weeks and given ad libitum access to control diet (LabDiet 5001 chow, PMI Nutrition, Brentwood, Mo.), and were at least age 11 weeks at the time of study. For studies in the DIO model, the mice were received at age five weeks and given ad libitum access to Bio-Sery F3282 High Fat Diet (Frenchtown, N.J.), and were at least age 16 weeks at the time of study. The experiments were conducted during the light phase of the light-dark cycle. Mice (n=6) are weighed and fasted for a two hour period prior to oral treatment. GK activators are formulated in Gelucire vehicle (Ethanol:Gelucire44/14:PEG400q.s. 4:66:30 v/w/v). For studies in lean mice, the mice were dosed orally with 5.0 μL per gram of body weight (i.e. 5 ml/kg×10.0 mg/ml formulation to equal a 50 mg/kg dose). For studies in DIO mice, the mice were dosed orally with 5.0 μL per gram of body weight (i.e. 5.0 ml/kg×5 mg/ml formulation to equal a 25 mg/kg dose). Immediately prior to dosing, a pre-dose (time zero) blood glucose reading was acquired by snipping off a small portion of the animal's tail and collecting 15 μL blood into a heparinized capillary tube for analysis. Following GK activator administration, additional blood glucose readings were taken at various time points post dose from the same tail wound. Results were interpreted by comparing the mean blood glucose values of vehicle treated mice with GK activator treated mice over the study period.
Table 2 below provides data for % glucose lowering of a representative number of compounds of the present invention vs. control at 2 hours post 25 or 50 mg/kg dose in C57B6 mice: […]

SC1.5 (concentration of activator that produced a 50% increase in the activity of GK) [1] [µM]	Structure (SMILES)	change in vivo at 25 mg/kg (C57BL/6J mice) [%]
0.187	Cn1ccc(NC(=O)[C@H](CC2CCCC2)N2Cc3c(cccc3C(F)(F)F)C2=O)n1 [Example 1, (S)-3-Cyclopentyl-N-(1-methyl-1H-pyrazol-3-yl)-2-(1-oxo-4-trifluoromethyl-1,3-dihydro-isoindol-2-yl)-propionamide]	-39.8
0.186	O=C(Nc1ccn(CCO)n1)[C@H](CC1CCCC1)N1Cc2c(cccc2C(F)(F)F)C1=O [Example 2, (S)-3-Cyclopentyl-N-[1-(2-hydroxy-ethyl)-1H-pyrazol-3-yl]-2-(1-oxo-4-trifluoromethyl-1,3-dihydro-isoindol-2-yl)-propionamide]	-38.8
0.244	CC(C)(C)OC(=O)Cn1ccc(NC(=O)[C@H](CC2CCCC2)N2Cc3c(cccc3C(F)(F)F)C2=O)n1 [Example 3, {3-[(S)-3-Cyclopentyl-2-(1-oxo-4-trifluoromethyl-1,3-dihydro-isoindol-2-yl)-propionylamino]-pyrazol-1-yl}-acetic acid tert-butyl ester]	–
0.439	O=C(O)Cn1ccc(NC(=O)[C@H](CC2CCCC2)N2Cc3c(cccc3C(F)(F)F)C2=O)n1 [Example 4, {3-[(S)-3-Cyclopentyl-2-(1-oxo-4-trifluoromethyl-1,3-dihydro-isoindol-2-yl)-propionylamino]-pyrazol-1-yl}-acetic acid]	–
0.074	O=C(Nc1ccn(C[C@@H](O)CO)n1)[C@H](CC1CCCC1)N1Cc2c(cccc2C(F)(F)F)C1=O [Example 5, (S)-3-Cyclopentyl-N-[1-((R)-2,3-dihydroxy-propyl)-1H-pyrazol-3-yl]-2-(1-oxo-4-trifluoromethyl-1,3-dihydro-isoindol-2-yl)-propionamide]	-50.1
0.119	O=C(Nc1ccn(C[C@H](O)CO)n1)[C@H](CC1CCCC1)N1Cc2c(cccc2C(F)(F)F)C1=O [Example 6, (S)-3-Cyclopentyl-N-[1-((S)-2,3-dihydroxy-propyl)-1H-pyrazol-3-yl]-2-(1-oxo-4-trifluoromethyl-1,3-dihydro-isoindol-2-yl)-propionamide]	-48.3
3.526	COCCn1ccc(NC(=O)[C@H](CC2CCCCC2)N2Cc3ccccc3C2=O)n1 [Example 8, (S)-3-Cyclohexyl-N-[1-(2-methoxy-ethyl)-1H-pyrazol-3-yl]-2-(1-oxo-1,3-dihydro-isoindol-2-yl)-propionamide]	–
1.6	COCCn1ccc(NC(=O)[C@H](CC2CCCC2)N2Cc3ccccc3C2=O)n1 [Example 9, (S)-3-Cyclopentyl-N-[1-(2-methoxy-ethyl)-1H-pyrazol-3-yl]-2-(1-oxo-1,3-dihydro-isoindol-2-yl)-propionamide]	–
20.625	COC(C)(C)Cn1ccc(NC(=O)[C@H](CC2CC2)N2Cc3ccccc3C2=O)n1 [Example 10, (S)-3-Cyclopropyl-N-[1-(2-methoxy-2-methyl-propyl)-1H-pyrazol-3-yl]-2-(1-oxo-1,3-dihydro-isoindol-2-yl)-propionamide]	–
2.091	CC(C)OCCn1ccc(NC(=O)[C@H](CC2CCCC2)N2Cc3ccccc3C2=O)n1 [Example 11, (S)-3-Cyclopentyl-N-[1-(2-isopropoxy-ethyl)-1H-pyrazol-3-yl]-2-(1-oxo-1,3-dihydro-isoindol-2-yl)-propionamide]	–
1.857	O=C(Nc1ccn(CCCO)n1)[C@H](CC1CCCC1)N1Cc2ccccc2C1=O [Example 12, (S)-3-Cyclopentyl-N-[1-(3-hydroxy-propyl)-1H-pyrazol-3-yl]-2-(1-oxo-1,3-dihydro-isoindol-2-yl)-propionamide]	–
1.242	COC(C)(C)Cn1ccc(NC(=O)[C@H](CC2CCCC2)N2Cc3ccccc3C2=O)n1 [Example 14, (S)-3-Cyclopentyl-N-[1-(2-methoxy-2-methyl-propyl)-1H-pyrazol-3-yl]-2-(1-oxo-1,3-dihydro-isoindol-2-yl)-propionamide]	–
0.062	O=C(Nc1cnc(Br)cn1)[C@H](CC1CCCC1)N1Cc2c(cccc2C(F)(F)F)C1=O [Example 16, (S)—N-(5-Bromo-pyrazin-2-yl)-3-cyclopentyl-2-(1-oxo-4-trifluoromethyl-1,3-dihydro-isoindol-2-yl)-propionamide]	–
0.334	CC(C)(C)OC(=O)CCn1ccc(NC(=O)[C@H](CC2CCCC2)N2Cc3c(cccc3C(F)(F)F)C2=O)n1 [Example 19, 3-{3-[(S)-3-Cyclopentyl-2-(1-oxo-4-trifluoromethyl-1,3-dihydro-isoindol-2-yl)-propionylamino]-pyrazol-1-yl}-propionic acid tert-butyl ester]	–
0.457	O=C(O)CCn1ccc(NC(=O)[C@H](CC2CCCC2)N2Cc3c(cccc3C(F)(F)F)C2=O)n1 [Example 20, 3-[3-[(S)-3-Cyclopentyl-2-(1-oxo-4-trifluoromethyl-1,3-dihydro-isoindol-2-yl)-propionylamino]-pyrazol-1-yl]-propionic acid]	–
14.914	CSCC[C@@H](C(=O)Nc1cnc([C@H](O)CO)cn1)N1Cc2c(cccc2C(F)(F)F)C1=O [Example 22, (S)—N-[5-((S)-1,2-Dihydroxy-ethyl)-pyrazin-2-yl]-4-methylsulfanyl-2-(1-oxo-4-trifluoromethyl-1,3-dihydro-isoindol-2-yl)-butyramide]	–
1.422	CC(C)C[C@@H](C(=O)Nc1cnccn1)N1Cc2c(cccc2C(F)(F)F)C1=O [Example 23, (S)-4-Methyl-2-(1-oxo-4-trifluoromethyl-1,3-dihydro-isoindol-2-yl)-pentanoic acid pyrazin-2-ylamide]	–
2.966	CC(C)C[C@@H](C(=O)Nc1cnc([C@H](O)CO)cn1)N1Cc2c(cccc2C(F)(F)F)C1=O [Example 24, (S)-4-Methyl-2-(1-oxo-4-trifluoromethyl-1,3-dihydro-isoindol-2-yl)-pentanoic acid [5-((S)-1,2-dihydroxy-ethyl)-pyrazin-2-yl]-amide]	–
